Measurements published in ChEMBL document CHEMBL1687939 (J Med Chem, 2011).
Activity calls are given as the source filed them. The calls are words filed in the database; no cut-off is given here.

How the values were obtained:
Carbonic anhydrase 9 = Carbonic anhydrase 9 (Homo sapiens, UniProt Q16790)
Description: Inhibition of tumor-associated human carbonic anhydrase 9 preincubated for 15 min by CO2 hydration assay

Carbonic anhydrase 12 = Carbonic anhydrase 12 (Homo sapiens, UniProt O43570)
Description: Inhibition of tumor-associated human carbonic anhydrase 12 preincubated for 15 min by CO2 hydration assay

Carbonic anhydrase 1 = Carbonic anhydrase 1 (Homo sapiens, UniProt P00915)
Description: Inhibition of human cytosolic carbonic anhydrase 1 preincubated for 15 min by CO2 hydration assay

Mus musculus [1] = test: Toxicity in BALB/c mouse assessed as body weight loss at 15 to 30 mg/kg, ip qd for 5 days; type: organism-based; set-up: dose 15-30 mg/kg, route intraperitoneal; details: in vivo, 120 h
4T1 [2] = test: Antimetastatic activity against mouse 4T1 cells expressing luciferase xenografted in BALB/c mouse assessed as reduction in metastasic burden in lungs at 15 to 30 mg/kg, ip qd administered 24 hrs after challenge for 5 days measured 24 hrs post last dose by bioluminescent technique relative to control; type: functional, organism-based
Mus musculus [3] = test: Toxicity in BALB/c mouse assessed as body weight loss at 15 to 45 mg/kg, ip qd administered as 3 doses on alternate days; type: organism-based; set-up: dose 15-45 mg/kg, route intraperitoneal; details: in vivo
4T1 [4] = test: Antimetastatic activity against mouse 4T1 cells expressing luciferase xenografted in BALB/c mouse assessed as limiting colonization of the cells in the lungs at 15 to 45 mg/kg, ip administered as 3 doses on alternate days measured 24 hrs post last dose by bioluminescent technique relative to control; type: functional, organism-based

Chain of Carbonic anhydrase 12 (O43570 whole entry): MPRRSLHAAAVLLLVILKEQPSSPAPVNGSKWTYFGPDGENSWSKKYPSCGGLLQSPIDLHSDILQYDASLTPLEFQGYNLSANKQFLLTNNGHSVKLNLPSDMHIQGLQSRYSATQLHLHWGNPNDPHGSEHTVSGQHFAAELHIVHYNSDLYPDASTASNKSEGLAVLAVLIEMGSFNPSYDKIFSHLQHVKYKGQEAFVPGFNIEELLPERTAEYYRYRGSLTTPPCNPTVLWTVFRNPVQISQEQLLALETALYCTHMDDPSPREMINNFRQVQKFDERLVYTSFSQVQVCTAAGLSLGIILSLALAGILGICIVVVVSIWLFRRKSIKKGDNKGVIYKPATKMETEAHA
Chain of Carbonic anhydrase 1 (P00915 whole entry): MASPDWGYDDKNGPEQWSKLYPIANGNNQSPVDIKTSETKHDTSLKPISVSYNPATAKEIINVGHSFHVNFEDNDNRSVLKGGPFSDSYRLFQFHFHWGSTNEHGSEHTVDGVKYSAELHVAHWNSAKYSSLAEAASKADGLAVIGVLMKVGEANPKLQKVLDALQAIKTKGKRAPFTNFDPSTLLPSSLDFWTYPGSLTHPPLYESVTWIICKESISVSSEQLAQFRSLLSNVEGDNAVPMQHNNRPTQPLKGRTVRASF

| Compound | Ki (Carbonic anhydrase 9) [nM] | Ki (Carbonic anhydrase 12) [nM] | other results |
| --- | --- | --- | --- |
| NS(=O)(=O)c1ccc(NC(=O)Nc2ccc(Br)cc2)cc1 | 69.3 | 7.9 | – |
| CC(C)c1ccc(NC(=O)Nc2ccc(S(N)(=O)=O)cc2)cc1 | 541 | 49.7 | – |
| NS(=O)(=O)c1ccc(NC(=O)Nc2ccc(I)cc2)cc1 | 24.5 | 4.3 | – |
| NS(=O)(=O)c1ccc(NC(=O)Nc2ccc(Oc3ccccc3)cc2)cc1 | 69.1 | 7.1 | Ki (Carbonic anhydrase 1): 604 nM |
| N#Cc1ccccc1NC(=O)Nc1ccc(S(N)(=O)=O)cc1 | 0.3 | 4.6 | Ki (Carbonic anhydrase 1): 10.9 nM |
| N#Cc1ccc(NC(=O)Nc2ccc(S(N)(=O)=O)cc2)cc1 | 6 | 6.5 | Ki (Carbonic anhydrase 1): 57 nM |
| CC(C)c1ccccc1NC(=O)Nc1ccc(S(N)(=O)=O)cc1 | 0.5 | 4.2 | – |
| COc1ccccc1NC(=O)Nc1ccc(S(N)(=O)=O)cc1 | 465 | 61.2 | Ki (Carbonic anhydrase 1): 92 nM |
| COc1ccc(NC(=O)Nc2ccc(S(N)(=O)=O)cc2)c(C)c1 | – | 6 | – |
| CCCCc1ccc(NC(=O)Nc2ccc(S(N)(=O)=O)cc2)cc1 | 376 | 28.5 | – |
| NS(=O)(=O)c1ccc(NC(=O)Nc2ccc(Cl)cc2)cc1 | – | 5.3 | – |
| CC(=O)c1ccc(NC(=O)Nc2ccc(S(N)(=O)=O)cc2)cc1 | – | 4.6 | Activity (Mus musculus [1]): Non-toxic; Activity (4T1 [2]): inactive |
| NS(=O)(=O)c1ccc(NC(=O)Nc2cccc([N+](=O)[O-])c2)cc1 | 0.9 | – | Activity (Mus musculus [3]): Non-toxic; Activity (4T1 [4]): Dose-dependent effect |
| CCCCOc1ccc(NC(=O)Nc2ccc(S(N)(=O)=O)cc2)cc1 | 0.8 | 2.5 | – |
